#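 In this assay, cells in 96-well plates receive the compound at five concentrations for 48 hours. Endpoints are linearly interpolated between the surrounding concentrations. Abbreviation: GI50, concentration required for 50% inhibition of growth.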 Calls of active or inactive are those of the source. No stated cut-off is given here; in the data, active = GI50 up to about 1.1 µM and inactive = higher.
# Key:
# Assay in all cases: inhibition of tumour cell growth, NCI panel, 48 h
# A498 = test system: A498
# HCC 2998 = test system: HCC 2998
# HL-60 = test system: HL-60
# Hs-578T = test system: Hs-578T
# IGROV-1 = test system: IGROV-1
# KM12 = test system: KM12
# MCF7 = test system: MCF7
# NCI-H23 = test system: NCI-H23
# OVCAR-3 = test system: OVCAR-3
# OVCAR-4 = test system: OVCAR-4
# RPMI-8226 = test system: RPMI-8226
# SF-295 = test system: SF-295
# SK-MEL-28 = test system: SK-MEL-28
# SK-OV-3 = test system: SK-OV-3
# SW-620 = test system: SW-620
# T47D = test system: T47D
# UACC-62 = test system: UACC-62
# EKVX = test system: EKVX
# OVCAR-8 = test system: OVCAR-8
Compound,GI50 (A498),GI50 (HCC 2998),GI50 (HL-60),GI50 (Hs-578T),GI50 (IGROV-1),GI50 (KM12),GI50 (MCF7),GI50 (NCI-H23),GI50 (OVCAR-3),GI50 (OVCAR-4),GI50 (RPMI-8226),GI50 (SF-295),GI50 (SK-MEL-28),GI50 (SK-OV-3),GI50 (SW-620),GI50 (T47D),GI50 (UACC-62),GI50 (EKVX),GI50 (OVCAR-8)
C/C(=N\NC(=S)NC(C)(C)C)c1ccccn1,0.248 µM (active),0.235 µM (active),< 0.01 µM (active),1.12 µM (inactive),< 0.01 µM (active),0.574 µM (active),< 0.01 µM (active),< 0.0172 µM (active),< 0.01 µM (active),4.1 µM (inactive),< 0.01 µM (active),0.589 µM (active),3.66 µM (inactive),0.305 µM (active),< 0.01 µM (active),< 0.01 µM (active),0.332 µM (active),,
Cc1cc2oc(=N)c(C#N)c(C)c2cc1C,> 100 µM (inactive),52.5 µM (inactive),33.4 µM (inactive),26.3 µM (inactive),26.5 µM (inactive),39.9 µM (inactive),31.9 µM (inactive),31.3 µM (inactive),70.1 µM (inactive),56.2 µM (inactive),42.7 µM (inactive),44.6 µM (inactive),> 100 µM (inactive),35.2 µM (inactive),67.6 µM (inactive),40.6 µM (inactive),47.4 µM (inactive),30.3 µM (inactive),72.3 µM (inactive)
CCOC(=O)Nc1ccc(S(=O)(=O)Nn2cnnc2)cc1,27.2 µM (inactive),33.8 µM (inactive),38 µM (inactive),57.9 µM (inactive),40.7 µM (inactive),36.2 µM (inactive),41.2 µM (inactive),> 100 µM (inactive),27.9 µM (inactive),17.5 µM (inactive),22.6 µM (inactive),31.5 µM (inactive),42.8 µM (inactive),62.7 µM (inactive),33.3 µM (inactive),> 100 µM (inactive),33.8 µM (inactive),> 100 µM (inactive),> 100 µM (inactive)
Oc1c(/N=N/c2ccccc2)c2ccccc2c2ccc3ccccc3c12,> 100 µM (inactive),> 100 µM (inactive),47.3 µM (inactive),62.8 µM (inactive),> 100 µM (inactive),> 100 µM (inactive),> 100 µM (inactive),> 100 µM (inactive),> 100 µM (inactive),33.2 µM (inactive),45.6 µM (inactive),50.5 µM (inactive),> 100 µM (inactive),> 100 µM (inactive),> 100 µM (inactive),> 100 µM (inactive),66.1 µM (inactive),50.4 µM (inactive),76.6 µM (inactive)
CC(=O)Nc1ccc2c3c(cc(O)c2c1)N(C(=O)CCCC(=O)N1CC(CCl)c2c1cc(O)c1cc(NC(C)=O)ccc21)CC3CCl (configuration not stated),< 0.01 µM (active),0.0122 µM (active),< 0.01 µM (active),0.0285 µM (active),0.0102 µM (active),0.0132 µM (active),< 0.01 µM (active),< 0.01 µM (active),0.0111 µM (active),0.0238 µM (active),0.0109 µM (active),< 0.01 µM (active),0.0201 µM (active),< 0.011 µM (active),0.0392 µM (active),< 0.01 µM (active),< 0.01 µM (active),0.0423 µM (active),< 0.01 µM (active)
Cc1cc(=O)oc2cc(O)ccc12 [HYMECROMONE],65.8 µM (inactive),> 100 µM (inactive),> 100 µM (inactive),> 100 µM (inactive),> 100 µM (inactive),> 100 µM (inactive),> 100 µM (inactive),> 100 µM (inactive),> 100 µM (inactive),> 100 µM (inactive),> 100 µM (inactive),> 100 µM (inactive),> 100 µM (inactive),> 100 µM (inactive),> 100 µM (inactive),> 100 µM (inactive),> 100 µM (inactive),> 100 µM (inactive),> 100 µM (inactive)
CCCCn1cnc2c(c(CC#N)nn2-c2ccccc2)c1=N,24.5 µM (inactive),37.1 µM (inactive),34 µM (inactive),39.9 µM (inactive),68.9 µM (inactive),43 µM (inactive),43.2 µM (inactive),51.9 µM (inactive),63.7 µM (inactive),29.8 µM (inactive),27.4 µM (inactive),30.4 µM (inactive),44.1 µM (inactive),> 100 µM (inactive),41.9 µM (inactive),35.7 µM (inactive),20.2 µM (inactive),48.8 µM (inactive),41.4 µM (inactive)
COc1ccc(P2(=S)SP(=S)(c3ccc(Cl)cc3)S2)cc1 (configuration not stated),> 100 µM (inactive),> 100 µM (inactive),> 100 µM (inactive),> 100 µM (inactive),> 100 µM (inactive),> 100 µM (inactive),> 100 µM (inactive),> 100 µM (inactive),> 100 µM (inactive),> 100 µM (inactive),> 100 µM (inactive),> 100 µM (inactive),> 100 µM (inactive),> 100 µM (inactive),> 100 µM (inactive),> 100 µM (inactive),> 100 µM (inactive),> 100 µM (inactive),> 100 µM (inactive)
CCOC(=O)c1ccc(Nc2cnc3ccc(C(F)(F)F)cc3n2)cc1,16.6 µM (inactive),12.9 µM (inactive),15.9 µM (inactive),17.4 µM (inactive),15 µM (inactive),13.1 µM (inactive),19.1 µM (inactive),15 µM (inactive),19.5 µM (inactive),11.6 µM (inactive),27.2 µM (inactive),20.7 µM (inactive),15.8 µM (inactive),35.9 µM (inactive),15.2 µM (inactive),18.7 µM (inactive),13.6 µM (inactive),24.6 µM (inactive),12.8 µM (inactive)
O=C1C(Cl)=C(Nc2ccc(S(=O)(=O)Nc3ccccn3)cc2)C(=O)c2ccccc21,20.7 µM (inactive),12.2 µM (inactive),3.3 µM (inactive),13.1 µM (inactive),5.93 µM (inactive),13.1 µM (inactive),5.15 µM (inactive),10.8 µM (inactive),4.65 µM (inactive),17.3 µM (inactive),3.52 µM (inactive),15.3 µM (inactive),16.3 µM (inactive),17 µM (inactive),5.78 µM (inactive),6.08 µM (inactive),5.6 µM (inactive),9.4 µM (inactive),4.09 µM (inactive)
CC1=C(C(=O)Nc2ccccc2)C(c2ccc(C)o2)C(C#N)=C(SCc2ccccc2)N1 (configuration not stated),> 81.5 µM (inactive),> 100 µM (inactive),17.7 µM (inactive),> 87.3 µM (inactive),52.6 µM (inactive),10.9 µM (inactive),19.8 µM (inactive),> 100 µM (inactive),51.9 µM (inactive),> 72.3 µM (inactive),25.1 µM (inactive),96.2 µM (inactive),> 100 µM (inactive),> 100 µM (inactive),> 58.6 µM (inactive),13.3 µM (inactive),18.9 µM (inactive),> 84.3 µM (inactive),> 100 µM (inactive)
Fc1ccc2nc3n(c2c1)C(c1c(F)cccc1F)SC3 (configuration not stated),65.5 µM (inactive),> 100 µM (inactive),17.7 µM (inactive),> 100 µM (inactive),> 100 µM (inactive),39.4 µM (inactive),39.9 µM (inactive),55 µM (inactive),54.8 µM (inactive),64.3 µM (inactive),60.4 µM (inactive),46 µM (inactive),> 100 µM (inactive),54.8 µM (inactive),49.5 µM (inactive),40.6 µM (inactive),82.4 µM (inactive),,65.6 µM (inactive)
Clc1cccc(Cl)c1C1ON=C(c2ccccc2)N1C12CC3CC(CC(C3)C1)C2 (configuration not stated),56.4 µM (inactive),13.8 µM (inactive),3.3 µM (inactive),24.2 µM (inactive),29.1 µM (inactive),1.63 µM (inactive),0.121 µM (active),31 µM (inactive),9.38 µM (inactive),25.3 µM (inactive),6.64 µM (inactive),> 100 µM (inactive),45 µM (inactive),98.2 µM (inactive),,11.4 µM (inactive),24 µM (inactive),37.4 µM (inactive),32.7 µM (inactive)
CCCCCCCCCCCCCCCCOP(=O)(O)OCC(NC(C)=O)C(=O)O (configuration not stated),32.4 µM (inactive),> 100 µM (inactive),43.8 µM (inactive),27.9 µM (inactive),24.3 µM (inactive),,> 100 µM (inactive),33 µM (inactive),98.2 µM (inactive),25.9 µM (inactive),41.7 µM (inactive),20.4 µM (inactive),> 100 µM (inactive),> 100 µM (inactive),> 100 µM (inactive),> 100 µM (inactive),,> 100 µM (inactive),> 100 µM (inactive)
CSc1c(C#N)c(O)n(-c2ccc(Cl)cc2)c(=O)c1C(C)=O,29.3 µM (inactive),> 100 µM (inactive),18.4 µM (inactive),> 100 µM (inactive),,> 100 µM (inactive),52.4 µM (inactive),31.5 µM (inactive),48.3 µM (inactive),37.5 µM (inactive),26 µM (inactive),,> 100 µM (inactive),> 100 µM (inactive),44.7 µM (inactive),27.1 µM (inactive),69.3 µM (inactive),> 100 µM (inactive),42.4 µM (inactive)

# Source: ChEMBL document CHEMBL1201862, “PubChem BioAssay data set” (2004)
